Laboratory results as given in paper PMC11207571, “Applicability of MDR1 Overexpressing Abcb1KO-MDCKII Cell Lines for Investigating In Vitro Species Differences and Brain Penetration Prediction” (Pharmaceutics, 2024).

Legend:
cynomolgus monkey Mdr1 [1] = target: T1, cynomolgus monkey Mdr1 (Macaca fascicularis, UniProt Q8HZQ6); experiment: Inhibition of 3H-digoxin or 3H-quinidine bidirectional transport in cyMDR1 cells; settings: Inhibition of quinidine transport IC50±SD, cyMDR1, probe 3H-quinidine 0.1 µM, 60 min; IC50 from ER
mouse Mdr1a [2] = target: T2, mouse Mdr1a (Mus musculus, UniProt P21447); experiment: Inhibition of 3H-digoxin or 3H-quinidine bidirectional transport in mMDR1 cells; assay type: cell-based; set-up: mouse Mdr1a (NM_011076.3); expressed in transfected cells; host or cells: Abcb1KO-MDCKII (canine kidney, endogenous Abcb1 knocked out), transduced, single-cell clone; settings: IC50 from ER
human BCRP = target: T3, human BCRP (Homo sapiens, UniProt Q9UNQ0); experiment: Bidirectional transport assay, efflux ratio in MDCKII-BCRP cells; settings: for efflux ratio at 120 min, 1 µM: human, pH 7.4
T3 sequence (Q9UNQ0 1-655): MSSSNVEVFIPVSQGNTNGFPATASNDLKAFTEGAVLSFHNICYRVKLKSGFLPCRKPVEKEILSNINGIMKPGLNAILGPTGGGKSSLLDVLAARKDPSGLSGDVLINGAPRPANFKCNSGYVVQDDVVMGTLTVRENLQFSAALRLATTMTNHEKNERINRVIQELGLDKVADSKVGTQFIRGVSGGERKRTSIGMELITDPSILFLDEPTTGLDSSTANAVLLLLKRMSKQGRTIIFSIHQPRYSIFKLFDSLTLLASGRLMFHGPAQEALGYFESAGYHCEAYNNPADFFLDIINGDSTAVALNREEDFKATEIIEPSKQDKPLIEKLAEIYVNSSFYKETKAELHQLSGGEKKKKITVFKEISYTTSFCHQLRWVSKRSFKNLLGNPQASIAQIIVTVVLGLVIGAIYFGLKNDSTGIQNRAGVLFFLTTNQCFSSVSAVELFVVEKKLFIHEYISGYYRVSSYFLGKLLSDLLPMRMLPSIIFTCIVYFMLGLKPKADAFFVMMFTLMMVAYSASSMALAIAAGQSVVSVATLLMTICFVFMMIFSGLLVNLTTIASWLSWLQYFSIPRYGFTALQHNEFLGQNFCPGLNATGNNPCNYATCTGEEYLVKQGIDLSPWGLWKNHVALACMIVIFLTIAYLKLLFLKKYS
Method in brief: (§1)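 Analyte levels in transport samples were measured by HPLC-MS/MS with SRM detection, using 0.1% formic acid in water and in acetonitrile as eluents. Samples were pooled, three to four analytes per pool.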

human MDR1 [3] = target: T4, human MDR1 (Homo sapiens, UniProt P08183); experiment: Inhibition of 3H-digoxin or 3H-quinidine bidirectional transport in hMDR1 cells; settings: IC50 from ER
mouse Mdr1a [4] = target: T2, mouse Mdr1a; experiment: Bidirectional transport assay, efflux ratio in Abcb1KO-MDCKII mMDR1 cells; settings: for efflux ratio at 120 min, 1 µM: mouse, pH 7.4
Method in brief: as §1

human MDR1 [5] = target: T4, human MDR1; experiment: Bidirectional transport assay, efflux ratio in Abcb1KO-MDCKII hMDR1 cells; settings: for efflux ratio at 120 min, 1 µM: human, MDCK-MDR1, pH 7.4
Method in brief: as §1

cynomolgus monkey Mdr1 [6] = target: T1, cynomolgus monkey Mdr1; experiment: Bidirectional transport assay, efflux ratio in Abcb1KO-MDCKII cyMDR1 cells; settings: for efflux ratio at 120 min, 1 µM: cynomolgus monkey, pH 7.4
Method in brief: as §1

cynomolgus monkey Mdr1 [7] = target: T1, cynomolgus monkey Mdr1; experiment: cell-based
rat Mdr1a [8] = target: T5, rat Mdr1a (Rattus norvegicus, UniProt Q6PSM0); experiment: Bidirectional transport assay, efflux ratio in Abcb1KO-MDCKII rMDR1 cells; settings: for efflux ratio at 120 min, 1 µM: rat, pH 7.4
Method in brief: as §1

rat Mdr1a [9] = target: T5, rat Mdr1a; experiment: Inhibition of 3H-digoxin or 3H-quinidine bidirectional transport in rMDR1 cells; assay type: cell-based; set-up: rat Mdr1a (NM_133401.1); expressed in transfected cells; host or cells: Abcb1KO-MDCKII (canine kidney, endogenous Abcb1 knocked out), transduced, single-cell clone; settings: IC50 from ER
hMDR1 and hBCRP = experiment: Brain permeability classification from total ER of hMDR1 and hBCRP against in vivo rodent Kp,uu,brain; settings: total ER cut-off 3; in vivo rodent Kp,uu,brain cut-off 0.3
Description: MDR1 and/or BCRP substrate properties were investigated by binary classification analysis on CNS+ and CNS− compounds. […] True negative (TN), where there was no efflux and the CNS+ compound crossed the BBB. […] The sensitivity and specificity of the estimation of brain penetration along with MDR1 and BCRP activity were calculated from predictive performance metrics.
First, NET ER was calculated and used for human predictions, (2) NET ER=ER(−inh)[…]ER(+inh) where ER(−inh) is ER in the absence of inhibitor, and ER(+inh) is ER in the presence of inhibitor, for hMDR1 (ERMDR1) or hBCRP (ERBCRP).
To identify the correlation between the in vivo rodent Kp,uu,brain and ERs, 58 compounds with known Kp,uu,brain were selected. An ER of 2 was used as a cut-off to classify MDR1 substrates and a Kp,uu,brain of 0.3 was used as a threshold for CNS penetrant compounds. The resulting graphs are thus divided into four quadrants. Brain penetration (Kp,uu,brain) was used as the logical value true condition, with compounds having Kp,uu,brain ≤ 0.3 considered positive. Q2 and Q3 comprise molecules with impaired brain penetration. […] Molecules in Q4 (true negatives, TN) can freely access the brain (Figure 2). Predictive performance metrics were calculated to show the efficacy of the established cell lines in BBB permeability classification (Table 1). Sensitivity refers to the ability of the model to correctly classify CNS-restricted molecules based on MDR1 substrate nature.
Subsequently, for a more reliable prediction of brain penetration, data generated in the hBCRP cell line were included in the analysis. hBCRP assay conditions and evaluations were identical to that of MDR1 cell lines, which allowed proper comparisons (Figure 2E,F). Total ER was calculated by combining ERs determined in BCRP and hMDR1 cell lines based on Equation (3), with an ER cut-off of 3. […] Eventually, total ERs were also assessed with the Relative Expression Factor (REF) (Equation (4); Figure 2E,F). REF is an in vitro and in vivo correlation scaler, calculated from transporter protein abundances in brain microvessels versus overexpressing cell lines.

[10] = Bidirectional transport assay, efflux ratio in Abcb1KO-MDCKII-Mock control cells; settings: dog, MDCK, pH 7.4
Description: (§2) Eluent A consisted of 0.1% formic acid in water, eluent B consisted of 0.1% formic acid in acetonitrile. Then, 10 µL samples were injected into the HPLC-MS/MS system. Mass spectrometric detection was performed in SRM mode, and ion transitions for each analyte were optimized during method development. Samples were analyzed in pools, with each pool containing three to four analytes.

[11] = system: Abcb1KO-MDCKII-Mock cells; experiment: as above; settings: 1 µM, 120 min; mean ± SD
Description: as §2

T5 sequence (Q6PSM0 1-1272): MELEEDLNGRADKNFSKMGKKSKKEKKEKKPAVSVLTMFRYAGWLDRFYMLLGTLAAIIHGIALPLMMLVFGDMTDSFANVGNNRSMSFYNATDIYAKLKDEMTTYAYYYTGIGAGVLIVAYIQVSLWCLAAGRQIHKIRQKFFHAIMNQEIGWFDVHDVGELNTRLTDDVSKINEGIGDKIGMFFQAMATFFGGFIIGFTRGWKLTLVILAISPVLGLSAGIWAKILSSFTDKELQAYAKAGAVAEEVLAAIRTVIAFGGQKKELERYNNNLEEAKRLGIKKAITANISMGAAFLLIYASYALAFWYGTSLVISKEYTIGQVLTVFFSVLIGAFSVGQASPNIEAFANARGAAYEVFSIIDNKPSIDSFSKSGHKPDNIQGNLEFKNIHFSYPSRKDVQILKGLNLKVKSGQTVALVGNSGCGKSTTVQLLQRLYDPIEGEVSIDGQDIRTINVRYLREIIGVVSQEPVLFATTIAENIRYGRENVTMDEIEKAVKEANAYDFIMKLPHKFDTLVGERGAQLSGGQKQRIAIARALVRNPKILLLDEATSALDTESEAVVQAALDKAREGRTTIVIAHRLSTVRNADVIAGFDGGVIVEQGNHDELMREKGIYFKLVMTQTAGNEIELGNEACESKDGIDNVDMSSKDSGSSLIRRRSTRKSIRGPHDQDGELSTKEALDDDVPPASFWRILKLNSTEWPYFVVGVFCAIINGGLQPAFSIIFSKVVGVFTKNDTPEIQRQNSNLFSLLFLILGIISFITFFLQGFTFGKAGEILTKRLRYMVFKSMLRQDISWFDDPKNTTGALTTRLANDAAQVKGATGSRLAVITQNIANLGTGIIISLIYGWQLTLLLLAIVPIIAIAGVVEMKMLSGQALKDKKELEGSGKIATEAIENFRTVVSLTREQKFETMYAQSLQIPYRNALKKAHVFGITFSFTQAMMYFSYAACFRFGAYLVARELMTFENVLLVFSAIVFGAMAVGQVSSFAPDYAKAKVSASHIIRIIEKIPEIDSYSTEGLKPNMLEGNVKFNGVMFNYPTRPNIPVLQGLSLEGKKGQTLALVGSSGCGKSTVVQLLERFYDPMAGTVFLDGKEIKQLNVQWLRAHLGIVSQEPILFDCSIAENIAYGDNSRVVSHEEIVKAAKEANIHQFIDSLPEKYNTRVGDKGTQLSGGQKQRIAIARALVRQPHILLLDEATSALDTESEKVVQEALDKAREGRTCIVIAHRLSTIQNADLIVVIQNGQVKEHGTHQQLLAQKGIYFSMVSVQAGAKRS
T4 sequence (P08183 whole entry): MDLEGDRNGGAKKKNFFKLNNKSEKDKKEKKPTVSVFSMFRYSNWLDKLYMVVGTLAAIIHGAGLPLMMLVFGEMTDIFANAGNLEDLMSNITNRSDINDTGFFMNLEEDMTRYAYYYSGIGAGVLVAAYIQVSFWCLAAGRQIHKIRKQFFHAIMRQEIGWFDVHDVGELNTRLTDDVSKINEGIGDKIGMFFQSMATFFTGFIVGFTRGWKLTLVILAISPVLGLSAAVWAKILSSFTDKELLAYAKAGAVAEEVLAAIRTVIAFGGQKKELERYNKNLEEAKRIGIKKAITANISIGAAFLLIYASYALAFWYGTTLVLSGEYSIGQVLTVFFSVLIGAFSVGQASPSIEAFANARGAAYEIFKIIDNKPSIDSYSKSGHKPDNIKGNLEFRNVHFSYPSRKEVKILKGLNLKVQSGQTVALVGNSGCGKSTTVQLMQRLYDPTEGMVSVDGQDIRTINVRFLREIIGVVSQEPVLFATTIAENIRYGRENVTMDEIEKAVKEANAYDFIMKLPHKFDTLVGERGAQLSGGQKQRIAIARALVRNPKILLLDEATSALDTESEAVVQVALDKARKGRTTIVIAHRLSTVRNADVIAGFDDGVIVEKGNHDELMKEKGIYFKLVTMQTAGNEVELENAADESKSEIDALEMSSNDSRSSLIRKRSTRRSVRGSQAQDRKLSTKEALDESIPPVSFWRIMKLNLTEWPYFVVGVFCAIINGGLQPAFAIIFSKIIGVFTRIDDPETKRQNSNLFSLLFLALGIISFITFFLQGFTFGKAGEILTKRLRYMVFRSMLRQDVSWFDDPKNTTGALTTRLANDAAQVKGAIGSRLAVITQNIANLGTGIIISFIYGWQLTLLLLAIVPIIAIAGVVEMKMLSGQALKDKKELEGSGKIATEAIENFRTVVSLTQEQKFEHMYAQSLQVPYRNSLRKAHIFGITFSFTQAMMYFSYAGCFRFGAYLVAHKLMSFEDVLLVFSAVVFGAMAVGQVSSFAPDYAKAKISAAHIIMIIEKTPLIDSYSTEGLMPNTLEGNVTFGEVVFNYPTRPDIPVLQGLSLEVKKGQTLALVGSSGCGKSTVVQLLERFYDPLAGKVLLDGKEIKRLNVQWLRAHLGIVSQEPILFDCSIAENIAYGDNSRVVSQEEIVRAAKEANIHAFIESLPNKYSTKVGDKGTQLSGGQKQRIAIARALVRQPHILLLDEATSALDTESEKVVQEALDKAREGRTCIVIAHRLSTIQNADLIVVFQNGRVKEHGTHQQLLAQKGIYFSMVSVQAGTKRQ
T2 sequence (P21447 whole entry): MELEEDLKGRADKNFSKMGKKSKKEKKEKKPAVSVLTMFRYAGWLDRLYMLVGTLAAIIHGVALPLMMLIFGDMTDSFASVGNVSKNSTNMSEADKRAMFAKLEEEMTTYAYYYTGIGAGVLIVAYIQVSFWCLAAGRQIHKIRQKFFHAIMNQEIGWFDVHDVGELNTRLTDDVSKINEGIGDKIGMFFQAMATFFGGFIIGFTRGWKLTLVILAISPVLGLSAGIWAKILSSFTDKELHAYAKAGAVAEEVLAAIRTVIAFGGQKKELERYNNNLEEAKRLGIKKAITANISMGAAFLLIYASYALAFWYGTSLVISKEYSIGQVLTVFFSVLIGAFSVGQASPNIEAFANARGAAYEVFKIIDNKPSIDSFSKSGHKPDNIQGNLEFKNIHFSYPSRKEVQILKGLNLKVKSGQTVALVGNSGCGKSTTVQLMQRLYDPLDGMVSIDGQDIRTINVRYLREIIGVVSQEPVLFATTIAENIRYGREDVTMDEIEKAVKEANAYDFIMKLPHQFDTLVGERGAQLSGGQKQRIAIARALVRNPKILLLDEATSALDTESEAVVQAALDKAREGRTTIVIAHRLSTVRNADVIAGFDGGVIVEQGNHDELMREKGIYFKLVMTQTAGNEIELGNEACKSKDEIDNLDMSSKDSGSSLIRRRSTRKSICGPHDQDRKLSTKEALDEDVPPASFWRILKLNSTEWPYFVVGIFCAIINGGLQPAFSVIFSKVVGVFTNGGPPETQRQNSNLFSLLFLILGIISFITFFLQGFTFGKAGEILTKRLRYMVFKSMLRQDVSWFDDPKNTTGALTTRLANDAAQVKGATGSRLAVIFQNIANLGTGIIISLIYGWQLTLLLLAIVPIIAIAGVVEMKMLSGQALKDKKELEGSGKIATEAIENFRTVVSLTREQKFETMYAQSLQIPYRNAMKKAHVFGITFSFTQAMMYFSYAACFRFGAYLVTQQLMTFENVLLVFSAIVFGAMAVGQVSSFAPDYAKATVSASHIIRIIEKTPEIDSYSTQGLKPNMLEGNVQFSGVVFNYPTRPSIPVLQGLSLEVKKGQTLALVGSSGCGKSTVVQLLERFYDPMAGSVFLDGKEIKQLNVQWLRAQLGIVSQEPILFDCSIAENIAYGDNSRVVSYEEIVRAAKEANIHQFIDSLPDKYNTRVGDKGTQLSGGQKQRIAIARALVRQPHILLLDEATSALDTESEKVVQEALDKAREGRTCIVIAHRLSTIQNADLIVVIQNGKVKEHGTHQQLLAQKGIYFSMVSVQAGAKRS
T1 sequence (Q8HZQ6 1-1283): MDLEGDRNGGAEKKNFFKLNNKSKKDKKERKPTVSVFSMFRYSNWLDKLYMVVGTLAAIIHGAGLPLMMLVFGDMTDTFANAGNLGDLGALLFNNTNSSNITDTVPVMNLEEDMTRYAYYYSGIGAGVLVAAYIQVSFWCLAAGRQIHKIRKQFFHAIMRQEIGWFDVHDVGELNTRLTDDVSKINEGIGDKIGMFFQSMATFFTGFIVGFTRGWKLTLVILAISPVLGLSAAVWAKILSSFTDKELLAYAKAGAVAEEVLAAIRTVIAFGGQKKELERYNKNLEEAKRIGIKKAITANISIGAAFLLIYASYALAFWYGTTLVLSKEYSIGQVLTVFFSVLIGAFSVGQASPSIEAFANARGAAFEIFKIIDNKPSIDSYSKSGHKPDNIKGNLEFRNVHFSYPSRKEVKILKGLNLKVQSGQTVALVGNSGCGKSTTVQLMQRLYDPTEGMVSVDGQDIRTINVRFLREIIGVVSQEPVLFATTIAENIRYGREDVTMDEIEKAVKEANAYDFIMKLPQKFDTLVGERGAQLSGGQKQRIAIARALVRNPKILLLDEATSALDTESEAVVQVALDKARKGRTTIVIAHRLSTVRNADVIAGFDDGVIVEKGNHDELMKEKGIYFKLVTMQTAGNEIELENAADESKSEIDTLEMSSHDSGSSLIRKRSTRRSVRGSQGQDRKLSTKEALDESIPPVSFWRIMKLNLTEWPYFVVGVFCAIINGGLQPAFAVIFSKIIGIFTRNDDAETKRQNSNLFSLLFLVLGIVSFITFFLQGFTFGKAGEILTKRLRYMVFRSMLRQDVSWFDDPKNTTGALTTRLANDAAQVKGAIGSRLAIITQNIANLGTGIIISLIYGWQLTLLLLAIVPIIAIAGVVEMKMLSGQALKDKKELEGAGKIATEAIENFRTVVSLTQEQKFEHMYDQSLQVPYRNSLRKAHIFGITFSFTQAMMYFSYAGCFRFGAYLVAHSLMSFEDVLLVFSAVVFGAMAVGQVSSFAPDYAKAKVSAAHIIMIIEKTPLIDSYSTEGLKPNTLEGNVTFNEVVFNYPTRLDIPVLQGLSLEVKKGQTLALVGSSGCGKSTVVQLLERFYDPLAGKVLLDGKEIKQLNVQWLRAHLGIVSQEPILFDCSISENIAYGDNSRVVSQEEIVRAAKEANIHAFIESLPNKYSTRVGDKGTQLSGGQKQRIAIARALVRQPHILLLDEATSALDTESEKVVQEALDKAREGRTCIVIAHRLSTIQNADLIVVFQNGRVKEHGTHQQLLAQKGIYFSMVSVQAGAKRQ

SMILES	efflux ratio at 120 min, 1 µM (human BCRP)	efflux ratio at 120 min, 1 µM (mouse Mdr1a [4])	efflux ratio at 120 min, 1 µM (human MDR1 [5])	efflux ratio at 120 min, 1 µM (cynomolgus monkey Mdr1 [6])	efflux ratio at 120 min, 1 µM (rat Mdr1a [8])	CNS penetration classification based on total ER (hMDR1 + hBCRP) (hMDR1 and hBCRP)	efflux ratio at 120 min, 1 µM [10]	also measured
Cc1ccc(-c2ncc(Cl)cc2-c2ccc(S(C)(=O)=O)cc2)cn1 [Etoricoxib]	2.35 ± 0.25	1.72 ± 0.23	1.97 ± 0.21	1.24 ± 0.21	2.01 ± 0.21	false positives	0.9 ± 0.09	IC50 (cynomolgus monkey Mdr1 [1]): 25.9 ± 10.5 µM; IC50 (mouse Mdr1a [2]; Inhibition of digoxin transport IC50±SD, mMDR1, probe 3H-digoxin 1 µM, 120 min): 57.8 ± 29.8 µM; IC50 (mouse Mdr1a [2]; Inhibition of quinidine transport IC50±SD, mMDR1, probe 3H-quinidine 1 µM, 60 min): 22.2 ± 5.43 µM; IC50 (human MDR1 [3]; Inhibition of digoxin transport IC50±SD, hMDR1, probe 3H-digoxin 1 µM, 120 min): > 100 µM; IC50 (human MDR1 [3]; Inhibition of quinidine transport IC50±SD, hMDR1, probe 3H-quinidine 1 µM, 60 min): > 100 µM; IC50 (cynomolgus monkey Mdr1 [7]): 15.5 ± 11.7 µM; IC50 (rat Mdr1a [9]; Inhibition of digoxin transport IC50±SD, rMDR1, probe 3H-digoxin 1 µM, 120 min): 54.6 ± 3.16 µM; IC50 (rat Mdr1a [9]; Inhibition of quinidine transport IC50±SD, rMDR1, probe 3H-quinidine 1 µM, 30 min): 18.8 ± 1.22 µM
CN(C)CCC=C1c2ccccc2CCc2ccccc21 [Amitriptylline]								ER in MDCKII BCRP (human BCRP; 1 µM, 120 min, mean ± SD): 0.8 ± 0.07; Efflux Ratio in Abcb1KO-MDCKII mMDR1 (mouse Mdr1a [4]; 1 µM, 120 min, mean ± SD): 0.96 ± 0.12; Efflux Ratio in Abcb1KO-MDCKII hMDR1 (human MDR1 [5]; 1 µM, 120 min, mean ± SD): 1.1 ± 0.11; Efflux Ratio in Abcb1KO-MDCKII cyMDR1 (cynomolgus monkey Mdr1 [6]; 1 µM, 120 min, mean ± SD): 0.67 ± 0.08; Efflux Ratio in Abcb1KO-MDCKII rMDR1 (rat Mdr1a [8]; 1 µM, 120 min, mean ± SD): 0.94 ± 0.14; Efflux Ratio in Abcb1KO-MDCKII Mock [11]: 1.05 ± 0.08
CCN(CC)C(=O)/C(C#N)=C/c1cc(O)c(O)c([N+](=O)[O-])c1 [Entacapone]	49.4 ± 3.92	0.34 ± 0.05	0.28 ± 0.02	0.46 ± 0.07	0.39 ± 0.03	true positives	0.32 ± 0.02	CNS penetration classification based on hMDR1 ER alone (human MDR1 [5]; ER cut-off 2, in vivo rodent Kp,uu,brain cut-off 0.3): false negatives
N=C(N)N/N=C/c1c(Cl)cccc1Cl [Guanabenz]	3.35 ± 1.17	1.08 ± 0.09	0.82 ± 0.1	0.84 ± 0.1	0.85 ± 0.13	false positives	0.93 ± 0.15	
Cc1nccn1CC1CCc2c(c3ccccc3n2C)C1=O (stereo not shown) [Ondansetron]	4.28 ± 0.71	5.33 ± 0.54	5.24 ± 0.68	3.77 ± 0.64	7.62 ± 0.39	false positives	0.7 ± 0.02	
